What was measured:
uterus = test: Uterine weight in ovariectomized rats, 4 days daily oral dosing (postmenopausal model); type: in vivo, Sprague Dawley rats; settings: for Uterine Weight % Increase verses ovariectomized controls: daily for 4 days, OVX rats
Experimental: (§1) In the examples illustrating the methods, a postmenopausal model was used in which effects of different treatments upon circulating lipids were determined.
(§2) Seventy-five day old female Sprague Dawley rats (weight range of 200 to 225 g) were obtained from Charles River Laboratories (Portage, Mich.). The animals were either bilaterally ovariectomized (OVX) or exposed to a Sham surgical procedure at Charles River Laboratories, and then shipped after one week. Upon arrival, they were housed in metal hanging cages in groups of 3 or 4 per cage and had ad libitum access to food (calcium content approximately 0.5%) and water for one week. Room temperature was maintained at 22.2°±1.7° C. with a minimum relative humidity of 40%. The photoperiod in the room was 12 hours light and 12 hours dark.
(§3) Dosing Regimen Tissue Collection. After a one week acclimation period (therefore, two weeks post-OVX) daily dosing with test compound was initiated. 17α-ethynyl estradiol or the test compound were given orally, unless otherwise stated, as a suspension in 1% carboxymethylcellulose or dissolved in 20% cyclodextrin. Animals were dosed daily for 4 days. Following the dosing regimen, animals were weighed and anesthetized with a ketamine: xylazine (2:1, V:V) mixture and a blood sample was collected by cardiac puncture. The animals were then sacrificed by asphyxiation with CO2, the uterus was removed through a midline incision, and a wet uterine weight was determined.
(§4) Source of Compound: 17α-ethynyl estradiol was obtained from Sigma Chemical Co., St. Louis, Mo.
(§5) Data presented in Table 1 below show comparative results among ovariectomized rats, rats treated with 17α-ethynyl estradiol (EE2; an orally available form of estrogen), and rats treated with certain compounds of the instant invention. […] This uterine response to estrogen is well recognized in the art.
(§6) The data presented in Table 1 below reflects the response of 5 to 6 rats per treatment.

serum cholesterol = test: Serum cholesterol in ovariectomized rats (Cholesterol Analysis); type: in vivo, Sprague Dawley rats; settings: for Serum Cholest. % Decrease verses ovariectomized controls: daily for 4 days, OVX rats
Experimental: as §1, §2, §3
Cholesterol Analysis. Blood samples were allowed to clot at room temperature for 2 hours, and serum was obtained following centrifugation for 10 minutes at 3000 rpm. Serum cholesterol was determined using a Boehringer Mannheim Diagnostics high performance cholesterol assay. Briefly the cholesterol was oxidized to cholest-4-en-3-one and hydrogen peroxide. The hydrogen peroxide was then reacted with phenol and 4-aminophenazone in the presence of peroxidase to produce a p-quinone imine dye, which was read spectrophotemetrically at 500 nm. Cholesterol concentration was then calculated against a standard curve.
as §4, §5, §6

Eosinophil peroxidase = test: Uterine Eosinophil Peroxidase (EPO) Assay in ovariectomized rats; type: in vivo, Sprague Dawley rats; settings: for Uterine Eosinophil peroxidase, Vmax: daily for 4 days, OVX rats
Experimental: as §1, §2, §3
Uterine Eosinophil Peroxidase (EPO) Assay. Uteri were kept at 4° C. until time of enzymatic analysis. The uteri were then homogenized in 50 volumes of 50 mM Tris buffer (pH-8.0) containing 0.005% Triton X-100. Upon addition of 0.01% hydrogen peroxide and 10 mM O-phenylenediamine (final concentrations) in Tris buffer, increase in absorbance was monitored for one minute at 450 nm. The presence of eosonophils in the uterus is an indication of estrogenic activity of a compound. The maximal velocity of a 15 second interval was determined over the initial, linear portion of the reaction curve.
as §4
As is expressed in the data below, estrogenicity also was assessed by evaluating the adverse response of eosinophil infiltration into the uterus.
as §6

femur = test: Osteoporosis Test Procedure: bone protection in ovariectomized rats, 35 days oral; type: in vivo
Experimental: Following the General Preparation Procedure, infra, the rats are treated daily for 35 days (6 rats per treatment group) and sacrificed by carbon dioxide asphyxiation on the 36th day. The 35 day time period is sufficient to allow maximal reduction in bone density, measured as described herein. At the time of sacrifice, the uteri are removed, dissected free of extraneous tissue, and the fluid contents are expelled before determination of wet weight in order to confirm estrogen deficiency associated with complete ovariectomy. […] The uteri are then placed in 10% neutral buffered formalin to allow for subsequent histological analysis. The right femurs are excised and digitilized x-rays generated and analyzed by an image analysis program (NIH image) at the distal metaphysis. The proximal aspect of the tibiae from these animals are also scanned by quantitative computed tomography. In accordance with the above procedures, compounds of the instant invention and ethynyl estradiol (EE2) in 20% hydroxypropyl β-cyclodextrin are orally administered to test animals. Distal femur metaphysis and proximal tibiae data are the results of formula I compound treatments compared to intact and ovariectomized test animals. Results are reported as percent protection relative to ovariectomy in Table 2 below.

[1] = tested on: MCF-7 breast adenocarcinoma cells; test: MCF-7 Proliferation Assay (tritiated thymidine incorporation); type: cell-based; settings: Homo sapiens, MCF7; 48 hours with drug, then tritiated thymidine 4 hours; read-out: ED50 (MCF-7 proliferation)
Experimental: MCF-7 breast adenocarcinoma cells (ATCC HTB 22) were maintained in MEM (minimal essential medium, phenol red-free, Sigma, St. Louis, Mo.) supplimented with 10% fetal bovine serum (FBS) (V/V), L-glutamine (2 mM), sodium pyruvate (1 mM), HEPES {(N-[2-hydroxyethyl]piperazine-N'-[2-ethanesulfonic acid]10 mM}, non-essential amino acids and bovine insulin (1 μg/mL) (maintenance medium). Ten days prior to assay, MCF-7 cells were switched to maintenance medium supplemented with 10% dextran coated charcoal stripped fetal bovine serum (DCC-FBS) assay medium) in place of 10% FBS to deplete internal stores of steroids. MCF-7 cells were removed from maintenance flasks using cell dissociation medium (Ca^++ /Mg^++ free HBSS (phenol red-free) supplemented with 10 mM HEPES and 2 mM EDTA). Cells were washed twice with assay medium and adjusted to 80,000 cells/mL. Approximately […] (8,000 cells) were added to flat-bottom microculture wells (Costar 3596) and incubated at 37° C. in a 5% CO2 humidified incubator for 48 hours to allow for cell adherence and equilibration after transfer. Serial dilutions of drugs or DMSO as a diluent control were prepared in assay medium and […] to triplicate microcultures followed by […] assay medium for a final volume of […]. After an additional 48 hours at 37° C. in a 5% CO2 humidified incubator, microcultures were pulsed with tritiated thymidine (1 uCi/well) for 4 hours. Cultures were terminated by freezing at -70° C. for 24 hours followed by thawing and harvesting of microcultures using a Skatron Semiautomatic Cell Harvester. Samples were counted by liquid scintillation using a Wallace BetaPlace β counter. Results in Table 3 below show the ED50 (nM) for certain compounds of the instant invention: […]

[2] = 0.1 mg/kg oral, 35 days, relative to ovariectomy

C#C[C@]1(O)CC[C@H]2[C@@H]3CCc4cc(O)ccc4[C@H]3CC[C@@]21C [EE2, 17α-ethynyl estradiol, reference compound]
Uterine Weight % Increase verses ovariectomized controls (uterus; 0.1 mg/kg PO): 169.5% | uterine weight, in words (uterus; oral, compared to ovariectomized animals): uterine weight was substantially greater than the uterine weight of ovariectomized test animals | Serum Cholest. % Decrease verses ovariectomized controls (serum cholesterol; 0.1 mg/kg PO): 90.5% | serum cholesterol, in words (serum cholesterol; oral, compared to ovariectomized control animals): caused a decrease in serum cholesterol when orally administered at 0.1 mg/kg/day | Uterine Eosinophil peroxidase, Vmax (Eosinophil peroxidase; 0.1 mg/kg PO): 144.0 | eosinophil infiltration into the uterus, in words (Eosinophil peroxidase; stromal layer of ovariectomized rats): substantial, expected increase in eosinophil infiltration | Femur BMD % protection (femur; [2]): 76.3% | Femur. % Protection (x-ray image) (femur; [2]): 99.1% | prevention of bone loss, in words (femur; oral, OVX rats, femur density): prevents this loss

COc1ccc2c(c1)-c1sc3cc(OC)ccc3c1C2c1ccc(OCCN2CCCCC2)cc1 (stereo not drawn) [Example 1A, 10-[4-[2-(1-Piperidinyl)ethoxy]phenyl]-3,7-dimethoxybenzo[b]indeno[2,1-d]thiophene]
IC50 [1]: 200 nM | Uterine Weight % Increase verses ovariectomized controls (uterus; 0.1 mg/kg PO): 19.2% | Uterine Weight % Increase verses ovariectomized controls (uterus; 1 mg/kg PO): 21.6% | Uterine Weight % Increase verses ovariectomized controls (uterus; 10 mg/kg PO): 26.8% | Serum Cholest. % Decrease verses ovariectomized controls (serum cholesterol; 0.1 mg/kg PO): 59.1% | Serum Cholest. % Decrease verses ovariectomized controls (serum cholesterol; 1 mg/kg PO): 47.7% | Serum Cholest. % Decrease verses ovariectomized controls (serum cholesterol; 10 mg/kg PO): 68.7% | Uterine Eosinophil peroxidase, Vmax (Eosinophil peroxidase; 0.1 mg/kg PO): 7.2 | Uterine Eosinophil peroxidase, Vmax (Eosinophil peroxidase; 1 mg/kg PO): 30.3 | Uterine Eosinophil peroxidase, Vmax (Eosinophil peroxidase; 10 mg/kg PO): 21.9

c1ccc2c(c1)-c1sc3ccccc3c1C2c1ccc(OCCN2CCCCC2)cc1 (stereo not drawn) [Example 1B, 10-[4-[2-(1-Piperidinyl)ethoxy]phenyl]benzo[b] indeno[2,1-d]thiophene]
IC50 [1]: 100 nM | Uterine Weight % Increase verses ovariectomized controls (uterus; 0.1 mg/kg PO): 21% | Uterine Weight % Increase verses ovariectomized controls (uterus; 1 mg/kg PO): 31.8% | Uterine Weight % Increase verses ovariectomized controls (uterus; 10 mg/kg PO): 27.7% | Serum Cholest. % Decrease verses ovariectomized controls (serum cholesterol; 0.1 mg/kg PO): 56.8% | Serum Cholest. % Decrease verses ovariectomized controls (serum cholesterol; 1 mg/kg PO): 71.0% | Serum Cholest. % Decrease verses ovariectomized controls (serum cholesterol; 10 mg/kg PO): 75.3% | Uterine Eosinophil peroxidase, Vmax (Eosinophil peroxidase; 0.1 mg/kg PO): 4.8 | Uterine Eosinophil peroxidase, Vmax (Eosinophil peroxidase; 1 mg/kg PO): 34.2 | Uterine Eosinophil peroxidase, Vmax (Eosinophil peroxidase; 10 mg/kg PO): 50.4

Oc1ccc2c(c1)-c1sc3cc(O)ccc3c1C2c1ccc(OCCN2CCCCC2)cc1 (stereo not drawn) [Example 2, 10-[4-[2-(1-Piperidinyl)ethoxy]phenyl]-3,7-dihydroxy benzo[b]indeno[2,1-d]thiophene]
IC50 [1]: 0.1 nM | Uterine Weight % Increase verses ovariectomized controls (uterus; 0.1 mg/kg PO): 14.6% | Uterine Weight % Increase verses ovariectomized controls (uterus; 1 mg/kg PO): 25.6% | Uterine Weight % Increase verses ovariectomized controls (uterus; 10 mg/kg PO): 18.3% | Serum Cholest. % Decrease verses ovariectomized controls (serum cholesterol; 0.1 mg/kg PO): 41.4% | Serum Cholest. % Decrease verses ovariectomized controls (serum cholesterol; 1 mg/kg PO): 52.5% | Serum Cholest. % Decrease verses ovariectomized controls (serum cholesterol; 10 mg/kg PO): 66.3% | Uterine Eosinophil peroxidase, Vmax (Eosinophil peroxidase; 0.1 mg/kg PO): 4.8 | Uterine Eosinophil peroxidase, Vmax (Eosinophil peroxidase; 1 mg/kg PO): 24.0 | Uterine Eosinophil peroxidase, Vmax (Eosinophil peroxidase; 10 mg/kg PO): 23.4

COc1ccc2c(c1)C(O)(c1ccc(OCCN3CCCCC3)cc1)c1c-2sc2cc(OC)ccc12 (stereo not drawn) [Example 3B, 10-[4-[2-(1-Piperidinyl)ethoxy]phenyl]-2,7-dimethoxy benzo[b]indeno[2,1-d]thiophen-10-ol]
Uterine Weight % Increase verses ovariectomized controls (uterus; 0.1 mg/kg PO): 50.4% | Uterine Weight % Increase verses ovariectomized controls (uterus; 1 mg/kg PO): 43.0% | Uterine Weight % Increase verses ovariectomized controls (uterus; 10 mg/kg PO): 28.2% | Serum Cholest. % Decrease verses ovariectomized controls (serum cholesterol; 0.1 mg/kg PO): 43.5% | Serum Cholest. % Decrease verses ovariectomized controls (serum cholesterol; 1 mg/kg PO): 62.5% | Serum Cholest. % Decrease verses ovariectomized controls (serum cholesterol; 10 mg/kg PO): 69.2% | Uterine Eosinophil peroxidase, Vmax (Eosinophil peroxidase; 0.1 mg/kg PO): 36.0 | Uterine Eosinophil peroxidase, Vmax (Eosinophil peroxidase; 1 mg/kg PO): 36.6 | Uterine Eosinophil peroxidase, Vmax (Eosinophil peroxidase; 10 mg/kg PO): 19.2

COc1ccc2c3c(sc2c1)-c1ccccc1C3c1ccc(OCCN2CCCCC2)cc1 (stereo not drawn) [Example 5A, 10-[4-[2-(1-Piperidinyl)ethoxy]phenyl]-7-methoxy benzo[b]indeno[2,1-d]thiophene]
Uterine Weight % Increase verses ovariectomized controls (uterus; 0.1 mg/kg PO): 33.8% | Uterine Weight % Increase verses ovariectomized controls (uterus; 1 mg/kg PO): 63.5% | Uterine Weight % Increase verses ovariectomized controls (uterus; 10 mg/kg PO): 92.9% | Serum Cholest. % Decrease verses ovariectomized controls (serum cholesterol; 0.1 mg/kg PO): 59.1% | Serum Cholest. % Decrease verses ovariectomized controls (serum cholesterol; 1 mg/kg PO): 74.4% | Serum Cholest. % Decrease verses ovariectomized controls (serum cholesterol; 10 mg/kg PO): 60.3% | Uterine Eosinophil peroxidase, Vmax (Eosinophil peroxidase; 0.1 mg/kg PO): 6.4 | Uterine Eosinophil peroxidase, Vmax (Eosinophil peroxidase; 1 mg/kg PO): 35.4 | Uterine Eosinophil peroxidase, Vmax (Eosinophil peroxidase; 10 mg/kg PO): 31.8
